Tests used:
Assay type in all cases: in vivo
Myzus persicae = test: Example B4: activity against Myzus persicae (green peach aphid), intrinsic activity; details: 120 h, test rate 12 ppm, 5 days after infestation
Description: Test compounds prepared from 10′000 ppm DMSO stock solutions were applied by pipette into 24-well microtiter plates and mixed with sucrose solution. The plates were closed with a stretched Parafilm. A plastic stencil with 24 holes was placed onto the plate and infested pea seedlings were placed directly on the Parafilm. The infested plate was closed with a gel blotting paper and another plastic stencil and then turned upside down. The samples were assessed for mortality 5 days after infestation.

Plutella xylostella = test: Example B5: activity against Plutella xylostella (diamond back moth), artificial diet, eggs; details: 192 h, 8 days after infestation, read-out: effect in at least one of the two categories (mortality or growth inhibition)
Description: 24-well microtiter plates with artificial diet were treated with aqueous test solutions prepared from 10′000 ppm DMSO stock solutions by pipetting. After drying, Plutella eggs were pipetted through a plastic stencil onto a gel blotting paper and the plate was closed with it. The samples were assessed for mortality and growth inhibition in comparison to untreated samples 8 days after infestation. The following compounds gave an effect of at least 80% in at least one of the two categories (mortality or growth inhibition) at an application rate of 200 ppm: P1, P2, P3, P4, P5, P6, P7, P8, P9, P10, P11, P12, P13, P14, P15, P16, P17, P18, P19, P20, P21, P22, P23, P24, P25, P26, P27, P28, P29, P30, P31, P32, P33, P34, P35, P36, P37, P38, P39, P40, P41, P42, P43, P44, P45, P46, P47, P48, P49, P50, P51, P52, P53, P54, P55, P57, P58, P59, P60, P61, P62, P63, P64, P65, P66, P67, P69, P70, P71, P72, P73, P74, P75, P77, P78, P81, P82, P83.

Chilo suppressalis = test: Example B1: activity against Chilo suppressalis (striped rice stemborer), artificial diet; details: for percent control (mortality, anti-feedant effect or growth inhibition) at 200 ppm: 144 h, L2 larvae, 6 days after infestation, read-out: control (at least one of mortality, anti-feedant effect, growth inhibition)
Description: 24-well microtiter plates with artificial diet were treated with aqueous test solutions prepared from 10′000 ppm DMSO stock solutions by pipetting. After drying, the plates were infested with L2 larvae (6-8 per well). The samples were assessed for mortality, anti-feeding effect, and growth inhibition in comparison to untreated samples 6 days after infestation. Control of Chilo suppressalis by a test sample is given when at least one of the categories mortality, anti-feedant effect, and growth inhibition is higher than the untreated sample.

Spodoptera littoralis = test: Example B6: activity against Spodoptera littoralis (Egyptian cotton leaf worm), cotton leaf discs; details: foliar, 72 h, 200 ppm, L1 larvae, 3 days after infestation, read-out: control (at least one of mortality, anti-feedant effect, growth inhibition)
Description: Cotton leaf discs were placed onto agar in 24-well microtiter plates and sprayed with aqueous test solutions prepared from 10′000 ppm DMSO stock solutions. After drying the leaf discs were infested with five L1 larvae. The samples were assessed for mortality, anti-feeding effect, and growth inhibition in comparison to untreated samples 3 days after infestation. Control of Spodoptera littoralis by a test sample is given when at least one of the categories mortality, anti-feedant effect, and growth inhibition is higher than the untreated sample.

Diabrotica balteata = test: Example B2: activity against Diabrotica balteata (corn root worm), maize sprouts; details: 96 h, L2 larvae, 4 days after infestation, read-out: effect in at least one of the two categories (mortality or growth inhibition)
Description: Maize sprouts placed onto an agar layer in 24-well microtiter plates were treated with aqueous test solutions prepared from 10′000 ppm DMSO stock solutions by spraying. After drying, the plates were infested with L2 larvae (6 to 10 per well). The samples were assessed for mortality and growth inhibition in comparison to untreated samples 4 days after infestation. The following compounds gave an effect of at least 80% in at least one of the two categories (mortality or growth inhibition) at an application rate of 200 ppm: P1, P2, P3, P4, P5, P7, P8, P9, P10, P11, P12, P13, P14, P15, P16, P17, P18, P19, P20, P21, P22, P23, P24, P25, P26, P27, P28, P29, P30, P31, P33, P34, P35, P36, P37, P38, P39, P40, P41, P42, P43, P45, P46, P47, P48, P49, P50, P51, P52, P53, P55, P57, P58, P59, P60, P61, P62, P63, P64, P65, P66, P67, P69, P71, P75, P81, P82, P83.

Compound: CNC(=O)c1cc(-n2ncnc2[C@H](C)Nc2ncnc3c(Cl)cc(I)cc23)ncn1 [Compound P4, 6-[5-[(1S)-1-[(8-chloro-6-iodo-quinazolin-4-yl)amino]ethyl]-1,2,4-triazol-1-yl]-N-methyl-pyrimidine-4-carboxamide]
- mortality at 12 ppm (Myzus persicae): ≥ 80%
- percent effect (mortality or growth inhibition) at 200 ppm (Plutella xylostella): ≥ 80%
- percent control (mortality, anti-feedant effect or growth inhibition) at 200 ppm (Chilo suppressalis): ≥ 80%
- percent control (mortality, anti-feedant effect or growth inhibition) at 200 ppm (Spodoptera littoralis): ≥ 80%
- percent effect (mortality or growth inhibition) at 200 ppm (Diabrotica balteata): ≥ 80%

Compound: CNC(=O)c1cc(-n2ncnc2[C@H](C)N(C)c2ncnc3c(Br)cc(Br)cc23)ncn1 [Compound P11, 6-[5-[(1S)-1-[(6,8-dibromoquinazolin-4-yl)-methyl-amino]ethyl]-1,2,4-triazol-1-yl]-N-methyl-pyrimidine-4-carboxamide]
- mortality at 12 ppm (Myzus persicae): ≥ 80%
- percent effect (mortality or growth inhibition) at 200 ppm (Plutella xylostella): ≥ 80%
- percent control (mortality, anti-feedant effect or growth inhibition) at 200 ppm (Chilo suppressalis): ≥ 80%
- percent control (mortality, anti-feedant effect or growth inhibition) at 200 ppm (Spodoptera littoralis): ≥ 80%
- percent effect (mortality or growth inhibition) at 200 ppm (Diabrotica balteata): ≥ 80%

Compound: CNC(=O)c1cc(-n2ncnc2[C@H](C)Nc2ncnc3c(Br)cc(Br)cc23)ncn1 [Compound P12, 6-[5-[(1S)-1-[(6,8-dibromoquinazolin-4-yl)amino]ethyl]-1,2,4-triazol-1-yl]-N-methyl-pyrimidine-4-carboxamide]
- mortality at 12 ppm (Myzus persicae): ≥ 80%
- percent effect (mortality or growth inhibition) at 200 ppm (Plutella xylostella): ≥ 80%
- percent control (mortality, anti-feedant effect or growth inhibition) at 200 ppm (Chilo suppressalis): ≥ 80%
- percent control (mortality, anti-feedant effect or growth inhibition) at 200 ppm (Spodoptera littoralis): ≥ 80%
- percent effect (mortality or growth inhibition) at 200 ppm (Diabrotica balteata): ≥ 80%

Compound: C[C@H](Nc1ncnc2c(Cl)cc(I)cc12)c1ncnn1-c1cc(C#N)ncn1 [Compound P18, 6-[5-[(1S)-1-[(8-chloro-6-iodo-quinazolin-4-yl)amino]ethyl]-1,2,4-triazol-1-yl]pyrimidine-4-carbonitrile]
- mortality at 12 ppm (Myzus persicae): ≥ 80%
- percent effect (mortality or growth inhibition) at 200 ppm (Plutella xylostella): ≥ 80%
- percent control (mortality, anti-feedant effect or growth inhibition) at 200 ppm (Chilo suppressalis): ≥ 80%
- percent control (mortality, anti-feedant effect or growth inhibition) at 200 ppm (Spodoptera littoralis): ≥ 80%
- percent effect (mortality or growth inhibition) at 200 ppm (Diabrotica balteata): ≥ 80%

Compound: C[C@H](Nc1ncnc2c(C(F)(F)F)cc(Cl)cc12)c1ncnn1-c1cc(C#N)ncn1 [Compound P19, 6-[5-[(1S)-1-[[6-chloro-8-(trifluoromethyl)quinazolin-4-yl]amino]ethyl]-1,2,4-triazol-1-yl]pyrimidine-4-carbonitrile]
- mortality at 12 ppm (Myzus persicae): ≥ 80%
- percent effect (mortality or growth inhibition) at 200 ppm (Plutella xylostella): ≥ 80%
- mortality at 12.5 ppm (Chilo suppressalis; 12.5 ppm): 80%
- percent control (mortality, anti-feedant effect or growth inhibition) at 200 ppm (Chilo suppressalis): ≥ 80%
- percent control (mortality, anti-feedant effect or growth inhibition) at 200 ppm (Spodoptera littoralis): ≥ 80%
- percent effect (mortality or growth inhibition) at 200 ppm (Diabrotica balteata): ≥ 80%

Compound: C[C@H](Nc1ncnc2c(C(F)(F)F)cc(Cl)cc12)c1ncnn1-c1cc(C(=O)NC2CC2)ncn1 [Compound P23, 6-[5-[(1S)-1-[[6-chloro-8-(trifluoromethyl)quinazolin-4-yl]amino]ethyl]-1,2,4-triazol-1-yl]-N-cyclopropyl-pyrimidine-4-carboxamide]
- mortality at 12 ppm (Myzus persicae): ≥ 80%
- percent effect (mortality or growth inhibition) at 200 ppm (Plutella xylostella): ≥ 80%
- percent control (mortality, anti-feedant effect or growth inhibition) at 200 ppm (Chilo suppressalis): ≥ 80%
- percent control (mortality, anti-feedant effect or growth inhibition) at 200 ppm (Spodoptera littoralis): ≥ 80%
- percent effect (mortality or growth inhibition) at 200 ppm (Diabrotica balteata): ≥ 80%

Compound: C[C@H](Nc1ncnc2c(C(F)(F)F)cc(Cl)cc12)c1ncnn1-c1cc(C(=O)NC2CS(=O)(=O)C2)ncn1 [Compound P24, 6-[5-[(1S)-1-[[6-chloro-8-(trifluoromethyl)quinazolin-4-yl]amino]ethyl]-1,2,4-triazol-1-yl]-N-(1,1-dioxothietan-3-yl)pyrimidine-4-carboxamide]
- mortality at 12 ppm (Myzus persicae): ≥ 80%
- percent effect (mortality or growth inhibition) at 200 ppm (Plutella xylostella): ≥ 80%
- percent control (mortality, anti-feedant effect or growth inhibition) at 200 ppm (Chilo suppressalis): ≥ 80%
- percent control (mortality, anti-feedant effect or growth inhibition) at 200 ppm (Spodoptera littoralis): ≥ 80%
- percent effect (mortality or growth inhibition) at 200 ppm (Diabrotica balteata): ≥ 80%

Compound: C[C@H](Nc1ncnc2c(C(F)(F)F)cc(Cl)cc12)c1ncnn1-c1cc(C(=O)NC2CSC2)ncn1 [Compound P25, 6-[5-[(1S)-1-[[6-chloro-8-(trifluoromethyl)quinazolin-4-yl]amino]ethyl]-1,2,4-triazol-1-yl]-N-(thietan-3-yl)pyrimidine-4-carboxamide]
- mortality at 12 ppm (Myzus persicae): ≥ 80%
- percent effect (mortality or growth inhibition) at 200 ppm (Plutella xylostella): ≥ 80%
- percent control (mortality, anti-feedant effect or growth inhibition) at 200 ppm (Chilo suppressalis): ≥ 80%
- percent control (mortality, anti-feedant effect or growth inhibition) at 200 ppm (Spodoptera littoralis): ≥ 80%
- percent effect (mortality or growth inhibition) at 200 ppm (Diabrotica balteata): ≥ 80%

Compound: C[C@H](Nc1ncnc2c(C(F)(F)F)cc(Cl)cc12)c1ncnn1-c1cc(C(=O)NO)ncn1 [Compound P26, 6-[5-[(1S)-1-[[6-chloro-8-(trifluoromethyl)quinazolin-4-yl]amino]ethyl]-1,2,4-triazol-1-yl]pyrimidine-4-carbohydroxamic acid]
- mortality at 12 ppm (Myzus persicae): ≥ 80%
- percent effect (mortality or growth inhibition) at 200 ppm (Plutella xylostella): ≥ 80%
- percent control (mortality, anti-feedant effect or growth inhibition) at 200 ppm (Chilo suppressalis): ≥ 80%
- percent control (mortality, anti-feedant effect or growth inhibition) at 200 ppm (Spodoptera littoralis): ≥ 80%
- percent effect (mortality or growth inhibition) at 200 ppm (Diabrotica balteata): ≥ 80%

Compound: CNC(=O)c1cc(-n2ncnc2[C@H](C)N(C)c2ncnc3c(Cl)cc(I)cc23)ncn1 [Compound P34, 6-[5-[(1S)-1-[(8-chloro-6-iodo-quinazolin-4-yl)-methyl-amino]ethyl]-1,2,4-triazol-1-yl]-N-methyl-pyrimidine-4-carboxamide]
- mortality at 12 ppm (Myzus persicae): ≥ 80%
- percent effect (mortality or growth inhibition) at 200 ppm (Plutella xylostella): ≥ 80%
- percent control (mortality, anti-feedant effect or growth inhibition) at 200 ppm (Chilo suppressalis): ≥ 80%
- percent control (mortality, anti-feedant effect or growth inhibition) at 200 ppm (Spodoptera littoralis): ≥ 80%
- percent effect (mortality or growth inhibition) at 200 ppm (Diabrotica balteata): ≥ 80%

Compound: C[C@H](Nc1ncnc2c(Br)cc(Br)cc12)c1ncnn1-c1ncc(C(N)=O)s1 [Compound P36, 2-[5-[(1S)-1-[(6,8-dibromoquinazolin-4-yl)amino]ethyl]-1,2,4-triazol-1-yl]thiazole-5-carboxamide]
- mortality at 12 ppm (Myzus persicae): ≥ 80%
- percent effect (mortality or growth inhibition) at 200 ppm (Plutella xylostella): ≥ 80%
- percent control (mortality, anti-feedant effect or growth inhibition) at 200 ppm (Chilo suppressalis): ≥ 80%
- percent control (mortality, anti-feedant effect or growth inhibition) at 200 ppm (Spodoptera littoralis): ≥ 80%
- percent effect (mortality or growth inhibition) at 200 ppm (Diabrotica balteata): ≥ 80%

Compound: C[C@H](Nc1ncnc2c(Br)cc(Br)cc12)c1ncnn1-c1cnc(C(=O)NCC#N)cn1 [Compound P72, N-(cyanomethyl)-5-[5-[(1S)-1-[(6,8-dibromoquinazolin-4-yl)amino]ethyl]-1,2,4-triazol-1-yl]pyrazine-2-carboxamide]
- mortality at 12 ppm (Myzus persicae): ≥ 80%
- percent effect (mortality or growth inhibition) at 200 ppm (Plutella xylostella): ≥ 80%
- percent control (mortality, anti-feedant effect or growth inhibition) at 200 ppm (Chilo suppressalis): ≥ 80%
- percent control (mortality, anti-feedant effect or growth inhibition) at 200 ppm (Spodoptera littoralis): ≥ 80%

Compound: C[C@H](Nc1ncnc2c(I)cc(Cl)cc12)c1ncnn1-c1cnc(C(=O)NCC#N)cn1 [Compound P73, 5-[5-[(1S)-1-[(6-chloro-8-iodo-quinazolin-4-yl)amino]ethyl]-1,2,4-triazol-1-yl]-N-(cyanomethyl)pyrazine-2-carboxamide]
- mortality at 12 ppm (Myzus persicae): ≥ 80%
- percent effect (mortality or growth inhibition) at 200 ppm (Plutella xylostella): ≥ 80%
- percent control (mortality, anti-feedant effect or growth inhibition) at 200 ppm (Chilo suppressalis): ≥ 80%
- percent control (mortality, anti-feedant effect or growth inhibition) at 200 ppm (Spodoptera littoralis): ≥ 80%
